Test results as given in PubChem BioAssay (NCI).
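Method: 48-hour compound exposure of cells in 96-well plates, five concentrations, linear interpolation of endpoints. Definition used: TGI = concentration required for complete inhibition of growth.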

Tests used:
Assay in all cases: NCI-60 cell line screen, 48 h
UACC-62 melanoma = system: UACC-62 melanoma
786-0 renal = system: 786-0 renal
SK-MEL-2 melanoma = system: SK-MEL-2 melanoma
SF-539 CNS = system: SF-539 CNS
SNB-19 CNS = system: SNB-19 CNS
M14 melanoma = system: M14 melanoma
NCI-H460 lung = system: NCI-H460 lung
DU-145 prostate = system: DU-145 prostate
OVCAR-4 ovarian = system: OVCAR-4 ovarian
RXF 393 renal = system: RXF 393 renal
HCT-116 colon = system: HCT-116 colon
OVCAR-8 ovarian = system: OVCAR-8 ovarian
SW-620 colon = system: SW-620 colon
KM12 colon = system: KM12 colon
HCC-2998 colon = system: HCC-2998 colon
BT-549 breast = system: BT-549 breast
SF-295 CNS = system: SF-295 CNS
NCI-H23 lung = system: NCI-H23 lung
OVCAR-3 ovarian = system: OVCAR-3 ovarian

Compound | TGI (UACC-62 melanoma) [µM] | TGI (786-0 renal) [µM] | TGI (SK-MEL-2 melanoma) [µM] | TGI (SF-539 CNS) [µM] | TGI (SNB-19 CNS) [µM] | TGI (M14 melanoma) [µM] | TGI (NCI-H460 lung) [µM] | TGI (DU-145 prostate) [µM] | TGI (OVCAR-4 ovarian) [µM] | TGI (RXF 393 renal) [µM] | TGI (HCT-116 colon) [µM] | TGI (OVCAR-8 ovarian) [µM] | TGI (SW-620 colon) [µM] | TGI (KM12 colon) [µM] | TGI (HCC-2998 colon) [µM] | TGI (BT-549 breast) [µM] | TGI (SF-295 CNS) [µM] | TGI (NCI-H23 lung) [µM] | TGI (OVCAR-3 ovarian) [µM]
O=Cc1ccc2c(c1)CC1(C2)Cc2ccc3c(c2C1)CCC3 (stereo not given) | 18.8 | 28.3 | 14 | 26.1 | 21 | 21.3 | 38.7 | > 69 | 16.9 | 28.5 | 19.1 | 29.8 | 15.2 | 33.1 | > 60.3 | 18.6 | 19.5 | 33.6 | 19.5
O=[N+]([O-])c1ccccc1S(=O)(=O)c1cc(Cl)cc2c1NCCC2 | > 100 | > 100 | > 100 | > 100 | > 100 | > 100 | > 100 | > 100 | > 100 | > 100 | > 100 | > 100 | > 100 | > 100 | > 100 | > 100 | > 100 |  | > 100
COc1cc(/C=C2\CCC(C)C3C2=NN(C(C)=O)C3c2cc(OC)c(OC)c(OC)c2)cc(OC)c1OC (stereo not given) | > 100 | > 100 | > 42.4 | > 100 | > 100 | > 100 | > 100 | > 100 | > 100 | > 100 | > 100 | > 100 | > 100 | > 100 | > 100 | > 100 | > 100 | > 100 | > 100
CC(=O)n1nc(-c2ccccc2)n(/N=C/c2ccc([N+](=O)[O-])cc2)c1=O | > 100 | > 100 | > 100 | > 100 | > 100 | > 100 | > 100 | > 100 | > 100 | > 100 | > 100 | > 100 | > 100 | > 100 | > 100 | > 100 | > 100 | > 100 | > 100
COc1ccc(/C=C(/C(=O)c2ccc(Cl)cc2)N2C=CC=CC2=C(C#N)C#N)cc1OC | 28.2 | 5.29 | 29.7 | 22.3 | 32.1 | 11.4 | 25.5 | 28.5 | 20.5 | 4.75 | 5.41 | 16.1 | > 32.9 | 42.1 | 4.2 | 22.5 | > 85.3 | 27.5 | 15.2
Cc1cc(C)c(S(=O)(=O)N2CCCN(S(=O)(=O)c3c(C)cc(C)cc3C)OCCCON(S(=O)(=O)c3c(C)cc(C)cc3C)CCCN(S(=O)(=O)c3c(C)cc(C)cc3C)OCCCO2)c(C)c1 | > 100 | > 100 | > 100 | > 100 | > 100 | > 100 | > 100 | > 100 | > 100 | > 100 | > 100 | > 100 | > 100 | > 100 | > 100 | > 100 | > 100 | > 100 | > 100
COc1ccc(C(C)NNC(=O)c2ccncc2)c(OC)c1 (stereo not given) | > 100 | > 100 | > 100 | > 100 | > 100 | > 100 | > 100 | > 100 | > 100 | > 100 | > 100 | > 100 | > 100 | > 100 | > 100 | > 100 | > 100 | > 100 | > 100
CC(C)(C)C(=O)OCC1CCC[N+]2(C)CCCCC12 (stereo not given) | > 100 | > 100 | > 100 | > 100 | > 100 | > 100 | > 100 | > 100 | > 100 | > 100 | > 100 | > 100 | > 100 | > 100 | > 100 | > 100 | > 100 | > 100 | > 100
CC(C)(C)c1cc(C(P(=O)(c2ccccc2)c2ccccc2)P(=O)(c2ccccc2)c2ccccc2)cc(C(C)(C)C)c1O | 3.32 | 7.23 | 3.88 | 3.88 | > 10 | 3.84 | 4.44 | > 10 | > 10 | 7.09 | 3.23 | 8.95 | > 9.23 | 3.37 | 4.45 | > 8.23 | 3.85 | 7.3 | 5.41
COc1ccc(CC2c3cc(Oc4cc(CC5c6cc(OC)c(OC)cc6CCN5C)ccc4O)c(OC)cc3CCN2C)cc1 (stereo not given) | 15.6 | 9.33 | 15.6 | 16.8 | 12.5 | 12.1 | 14.1 | 6.34 | 8.77 | 12 | 4.6 | 13.4 | 7.29 | 5.33 | 2.64 | 13.4 | 15.4 | 15.4 | 15.1
NS(=O)(=O)c1nn2c(Br)c(-c3ccccc3)nc2s1 | 15.4 | 9.34 | 16.9 | 3.95 | 22.8 | 13.8 | 19.3 | 8.5 | 24.4 | 9.48 | 7.3 | 7.89 | 12.4 | 21.3 | 16.7 | 7.69 | 22.6 | 11.1 | 15.9
COc1cc(C2c3cc4c(cc3OC(N3CCCC3)C2C)OCO4)cc(OC)c1O (stereo not given) | > 61.6 | 59.5 | > 85.9 | 41.2 | 38.9 | > 51.1 | > 100 | > 90 | > 100 | > 42.7 | > 100 | > 100 | > 100 | > 100 | > 94.3 | 53.2 | 22.3 | > 82.1 | > 65.5
CN(c1ccc(Cl)cc1)S(=O)(=O)c1cccc([N+](=O)[O-])c1 | > 100 | > 100 | > 100 | > 100 | > 100 | > 100 | > 100 | > 100 | > 100 | > 100 | > 100 | > 100 | > 100 | > 100 | > 100 | > 100 | > 100 | > 100 | > 100
COc1ccc(C2CC(=O)CC(c3ccc(OC)cc3)C23C(=O)NC(=O)NC3=O)cc1 (stereo not given) | > 100 | > 100 | 46.7 | > 100 | > 100 | > 100 | > 100 | > 100 | > 100 | > 100 | > 100 | > 100 | 50.2 | 72.9 | 45.7 | > 100 | > 100 | 64.7 | 44.4
O=C(NCCCCCCNC(=O)c1cccc2ccccc12)Nc1cccc2ccccc12 | > 100 | > 100 | > 100 | > 100 | > 100 | > 100 | > 100 | > 100 | > 100 | > 100 | > 100 | > 100 | > 100 | > 100 | > 100 | > 100 | > 100 | > 100 | > 100
C=C1C[C@@H]2O[C@H]3[C@H]4[C@@H](C[C@@H](C)[C@@H](OC(C)=O)[C@H]42)[C@@H](C)CO[C@@]3(C)[C@H](OC(C)=O)C[C@H]1O | > 100 | > 100 | > 100 | > 100 | > 100 | > 100 | > 100 | > 100 | > 100 | > 100 | > 100 | > 100 | > 100 | > 100 | > 100 | > 100 | > 100 | > 100 | > 100
Nc1nc(N)c2[nH]c(CNc3ccc(C(=O)O)cc3)nc2n1 | > 100 | > 100 | > 100 | > 100 | > 100 | > 100 | > 100 | > 100 | > 100 | > 100 | > 100 | > 100 | > 100 | > 100 | > 100 | > 100 | > 100 | > 100 | > 100
S=C(NCc1ccccc1)c1nc[nH]c1C(=S)NCc1ccccc1 | 13.4 | 18.8 | 22.2 | 23.2 | 18.6 | 20.7 | 18.7 | 21.6 | 20 | 24.9 | 17.9 | 18.8 | 20.8 | 20 | 23.6 | 27.2 | 17.6 | 25.7 | 18.8
Nc1nc(Cl)c(N)c(NC23CC4CC(CC(C4)C2)C3)n1 | 3.64 | 3.03 | 1.16 | 3.72 | 3.42 | 3.02 | 17.7 | 7.05 | 4.21 | 3.24 | 2.92 | 6.59 | 2.94 | 3.67 | 7.89 | 6.76 | 11.3 | 8.43 | 3.62
